Measured values as given in ChEMBL document CHEMBL5150056, “Synthesis and antibiofilm evaluation of N-acyl-2-aminopyrimidine derivatives against Acinetobacter baumannii” (Bioorg Med Chem, 2022).
pIC50: −log10 of the molar value. In brackets after ≈: the same amount, converted by molar mass. Activity calls are given as the source filed them. The rule behind the calls is not given here.

Tests used:
Acinetobacter baumannii [1] = experiment: Antibacterial activity against Acinetobacter baumannii S1 assessed as planktonic growth inhibition incubated for 18 to 24 hrs by CLSI protocol based assay; type: functional; settings: time 18-24 hrs
Acinetobacter baumannii [2] = experiment: Antibiofilm activity against Acinetobacter baumannii S1 assessed as inhibition rate of biofilm formation at 100 uM incubated for 18 to 24 hrs by crystal violet staining based assay (reference value: 28.8 +/- 8.21%); type: functional; set-up: scale not given: the % may be the effect or the level left; settings: time 18-24 hrs
Acinetobacter baumannii [3] = experiment: Antibacterial activity against Acinetobacter baumannii assessed as planktonic growth inhibition incubated for 18 to 24 hrs by CLSI protocol based assay; type: functional; settings: time 18-24 hrs
Acinetobacter baumannii [4] = experiment: Synergistic antibacterial activity against Acinetobacter baumannii assessed as planktonic growth inhibition incubated for 18 to 24 hrs in the presence of oxacillin by CLSI protocol based checkerboard assay; type: functional; settings: time 18-24 hrs
Acinetobacter baumannii [5] = experiment: Synergistic antibacterial activity against Acinetobacter baumannii assessed as fractional inhibitory concentration index incubated for 18 to 24 hrs in the presence of gentamycin sulphate by CLSI protocol based checkerboard assay; type: functional; settings: time 18-24 hrs
Acinetobacter baumannii [6] = experiment: Antibiofilm activity against Acinetobacter baumannii ATCC19606 assessed as inhibition of biofilm formation incubated for 18 to 24 hrs by crystal violet staining based assay; type: functional, organism-based
Acinetobacter baumannii [7] = experiment: Synergistic antibacterial activity against Acinetobacter baumannii assessed as fractional inhibitory concentration index incubated for 18 to 24 hrs in the presence of oxacillin by CLSI protocol based checkerboard assay; type: functional; settings: time 18-24 hrs
Acinetobacter baumannii [8] = experiment: Antibiofilm activity against Acinetobacter baumannii 1913061 assessed as inhibition of biofilm formation incubated for 18 to 24 hrs by crystal violet staining based assay; type: functional, organism-based
Acinetobacter baumannii [9] = experiment: Antibiofilm activity against Acinetobacter baumannii 1925052 assessed as inhibition of biofilm formation incubated for 18 to 24 hrs by crystal violet staining based assay; type: functional, organism-based
Acinetobacter baumannii [10] = experiment: Antibiofilm activity against Acinetobacter baumannii 1778027 assessed as inhibition of biofilm formation incubated for 18 to 24 hrs by crystal violet staining based assay; type: functional, organism-based
[11] = Cytotoxicity against mouse 3T3-L1 cells assessed as inhibition of cell growth incubated for 24 hrs by MTT assay; type: toxicity, cell-based
Acinetobacter baumannii [12] = experiment: Antibiofilm activity against Acinetobacter baumannii 1780608 assessed as inhibition of biofilm formation incubated for 18 to 24 hrs by crystal violet staining based assay; type: functional, organism-based
[13] = test system: Staphylococcus epidermidis; experiment: Antibiofilm activity against Staphylococcus epidermis ATCC 102555 assessed as inhibition of biofilm formation incubated for 18 to 24 hrs by crystal violet staining based assay; type: functional, organism-based
Acinetobacter baumannii [14] = experiment: Antibiofilm activity against Acinetobacter baumannii assessed as reduction in biofilm thickness at 100 uM incubated for 24 hrs by Alexa fluor 488 staining based confocal laser microscopic analysis (reference value: 25.91); type: functional
Acinetobacter baumannii [15] = experiment: Antibiofilm activity against Acinetobacter baumannii S1 assessed as inhibition of biofilm formation incubated for 18 to 24 hrs by crystal violet staining based assay; type: functional, organism-based
Staphylococcus aureus = experiment: Antibiofilm activity against Staphylococcus aureus ATCC […] assessed as inhibition of biofilm formation incubated for 18 to 24 hrs by crystal violet staining based assay; type: functional, organism-based
Acinetobacter baumannii [16] = experiment: Synergistic antibacterial activity against Acinetobacter baumannii assessed as planktonic growth inhibition incubated for 18 to 24 hrs in the presence of gentamycin sulphate by CLSI protocol based checkerboard assay; type: functional; settings: time 18-24 hrs
3T3-L1 [17] = experiment: Cytotoxicity against mouse 3T3-L1 cells assessed as reduction in cell viability at 100 uM incubated for 24 hrs by MTT assay relative to control; type: toxicity, cell-based; settings: 3t3-l1, 24 h
Acinetobacter baumannii [18] = experiment: Antibiofilm activity against Acinetobacter baumannii assessed as reduction in extracellular polysaccharides at 100 uM incubated for 1 hrs by ELISA analysis; type: functional; set-up: scale not given: the % may be the effect or the level left
Acinetobacter baumannii [19] = experiment: Antibiofilm activity against Acinetobacter baumannii assessed as reduction in biofilm brightness at 100 uM incubated for 24 hrs by Alexa fluor 488 staining based confocal laser microscopic analysis; type: functional, organism-based
Acinetobacter baumannii [20] = experiment: Antibiofilm activity against Acinetobacter baumannii assessed as reduction in bacterial motility in agar plates by quorum sensing process at 100 uM incubated for 24 hrs; type: functional, organism-based
Pseudomonas aeruginosa = experiment: Antibiofilm activity against Pseudomonas aeruginosa ATCC 27853 assessed as inhibition of biofilm formation incubated for 18 to 24 hrs by crystal violet staining based assay; type: functional, organism-based
Escherichia coli = experiment: Antibiofilm activity against Escherichia coli Dh5alpha assessed as inhibition of biofilm formation incubated for 18 to 24 hrs by crystal violet staining based assay; type: functional, organism-based; settings: DH5-alpha
3T3-L1 [21] = experiment: Cytotoxicity against mouse 3T3-L1 cells assessed as reduction in cell viability at 25 uM incubated for 24 hrs by MTT assay relative to control; type: toxicity, cell-based; settings: 3t3-l1, 24 h
3T3-L1 [22] = experiment: Cytotoxicity against mouse 3T3-L1 cells assessed as reduction in cell viability at 50 uM incubated for 24 hrs by MTT assay relative to control; type: toxicity, cell-based; settings: 3t3-l1, 24 h
Acinetobacter baumannii [23] = experiment: Synergistic antibacterial activity against Acinetobacter baumannii assessed as fractional inhibitory concentration index incubated for 18 to 24 hrs in the presence of chloramphenicol by CLSI protocol based checkerboard assay; type: functional; settings: time 18-24 hrs
3T3-L1 [24] = experiment: Cytotoxicity against mouse 3T3-L1 cells assessed as reduction in cell viability at 200 uM incubated for 24 hrs by MTT assay relative to control; type: toxicity, cell-based; settings: 3t3-l1, 24 h
Acinetobacter baumannii [25] = experiment: Synergistic antibacterial activity against Acinetobacter baumannii assessed as planktonic growth inhibition incubated for 18 to 24 hrs in the presence of chloramphenicol by CLSI protocol based checkerboard assay; type: functional; settings: time 18-24 hrs
3T3-L1 [26] = experiment: Cytotoxicity against mouse 3T3-L1 cells assessed as reduction in cell viability at 12.5 uM incubated for 24 hrs by MTT assay relative to control; type: toxicity, cell-based; settings: 3t3-l1, 24 h

Question: Which MIC (Acinetobacter baumannii [1]) does the source give for `O=C(Cc1cccs1)Nc1ncccn1` here?
Answer: The MIC was > 256 µg/mL.

Question: And the Activity (Acinetobacter baumannii [2])?
Answer: Its Activity is 5.5%.

Question: With `CCCC(=O)Nc1ncccn1` as the molecule, how does the MIC (Acinetobacter baumannii [1]) read?
Answer: Its MIC is > 256 µg/mL.

Question: What about the Activity (Acinetobacter baumannii [2]) of the same molecule?
Answer: Its Activity is 28.3%.

Question: Which results are given for `CCCCCCCCCCCCCC(=O)Nc1nc(Cl)c(Cl)c(Cl)n1`?
Answer: MIC (Acinetobacter baumannii [1]): > 256 µg/mL; Activity (Acinetobacter baumannii [2]): 32%

Question: For `CCCCCCCCCCCCCC(=O)Nc1ncc(Cl)c(Cl)n1`, which MIC (Acinetobacter baumannii [1]) is on record?
Answer: The MIC was > 256 µg/mL.

Question: And the Activity (Acinetobacter baumannii [2])?
Answer: The Activity was 30.9%.

Question: For `CCCCCCCCCCCCCC(=O)Nc1nc(C)cc(Cl)n1`, which MIC (Acinetobacter baumannii [1]) is on record?
Answer: Its MIC is > 256 µg/mL.

Question: And the Activity (Acinetobacter baumannii [2])?
Answer: The Activity was 46.6%.

Question: With `O=C(COc1ccccc1)Nc1ncccn1` as the molecule, how does the MIC (Acinetobacter baumannii [1]) read?
Answer: The MIC was > 256 µg/mL.

Question: What about the Activity (Acinetobacter baumannii [2]) of the same molecule?
Answer: Its Activity is 18.2%.

Question: Which MIC (Acinetobacter baumannii [1]) does the source give for `CC(C)CC(=O)Nc1ncccn1` here?
Answer: Its MIC is > 256 µg/mL.

Question: What about the Activity (Acinetobacter baumannii [2]) of the same molecule?
Answer: Its Activity is 3.8%.

Question: Which Activity (Acinetobacter baumannii [2]) does the source give for `CCCCCCCCCCCCCC(=O)Nc1nc(F)cc(F)n1` here?
Answer: Its Activity is 20.8%.

Question: Which MIC (Acinetobacter baumannii [1]) does the source give for `CCCCCCCCCCCCCC(=O)Nc1ncc(Cl)cn1` here?
Answer: The MIC was > 256 µg/mL.

Question: And the Activity (Acinetobacter baumannii [2])?
Answer: Its Activity is 40.5%.

Question: Which MIC (Acinetobacter baumannii [1]) does the source give for `CCCCCC(=O)Nc1ncccn1` here?
Answer: Its MIC is > 256 µg/mL.

Question: And the Activity (Acinetobacter baumannii [2])?
Answer: Its Activity is 23.3%.

Question: For `O=C(/C=C/c1ccccc1)Nc1ncccn1`, which MIC (Acinetobacter baumannii [1]) is on record?
Answer: The MIC was > 256 µg/mL.

Question: What about the Activity (Acinetobacter baumannii [2]) of the same molecule?
Answer: Its Activity is 13.6%.

Question: With `CCCCCCCCCCCCCC(=O)Nc1nc(Cl)cc(N(C)C)n1` as the molecule, how does the MIC (Acinetobacter baumannii [1]) read?
Answer: Its MIC is > 256 µg/mL.

Question: What about the Activity (Acinetobacter baumannii [2]) of the same molecule?
Answer: The Activity was 40.5%.

Question: Which MIC (Acinetobacter baumannii [3]) does the source give for `CN[C@@H]1[C@@H](O)[C@@H](O[C@@H]2[C@@H](O)[C@H](O[C@H]3O[C@H]([C@@H](C)NC)CC[C@H]3N)[C@@H](N)C[C@H]2N)OC[C@]1(C)O.O=S(=O)(O)O` here?
Answer: Its MIC is 1 µg/mL.

Question: With `O=C(N[C@H](CO)[C@H](O)c1ccc([N+](=O)[O-])cc1)C(Cl)Cl` [CHLORAMPHENICOL] as the molecule, how does the MIC (Acinetobacter baumannii [3]) read?
Answer: The MIC was 256 µg/mL (≈ 792 µM).

Question: For `CCCCCCCCCCCCCC(=O)Nc1nc(Cl)cc(NC)n1`, which MIC (Acinetobacter baumannii [1]) is on record?
Answer: The MIC was > 256 µg/mL.

Question: What about the Activity (Acinetobacter baumannii [2]) of the same molecule?
Answer: Its Activity is 27%.

Question: With `CCCCCCCCCCCCCC(=O)N1CCN(c2ncccn2)CC1` as the molecule, how does the MIC (Acinetobacter baumannii [1]) read?
Answer: Its MIC is > 256 µg/mL.

Question: And the Activity (Acinetobacter baumannii [2])?
Answer: Its Activity is 27.9%.

Question: For `CCCCCCCCCCCCCC(=O)Nc1nc(N)cc(F)n1`, which Activity (Acinetobacter baumannii [2]) is on record?
Answer: Its Activity is 53.1%.

Question: With `CCCCCCCCCCCCCC(=O)Nc1nc(C)cc(O)n1` as the molecule, how does the MIC (Acinetobacter baumannii [1]) read?
Answer: The MIC was > 256 µg/mL.

Question: What about the Activity (Acinetobacter baumannii [2]) of the same molecule?
Answer: The Activity was 37.8%.

Question: Which MIC (Acinetobacter baumannii [1]) does the source give for `O=C(Nc1ncccn1)OCc1ccccc1` here?
Answer: The MIC was > 256 µg/mL.

Question: What about the Activity (Acinetobacter baumannii [2]) of the same molecule?
Answer: The Activity was 24.5%.

Question: For `CCCCCCCCCCCCCC(=O)Nc1nccc(C)n1`, which MIC (Acinetobacter baumannii [1]) is on record?
Answer: The MIC was > 256 µg/mL.

Question: And the Activity (Acinetobacter baumannii [2])?
Answer: Its Activity is 26.9%.

Question: Which results are given for `CCCCCCCCCCCCCC(=O)Nc1nc(Cl)cc(N2CCNCC2)n1`?
Answer: MIC (Acinetobacter baumannii [4]): 128 µg/mL; fractional inhibitory concentration index (FICI) (Acinetobacter baumannii [5]): 0.13; pIC50 (Acinetobacter baumannii [6]): 5.35; fractional inhibitory concentration index (FICI) (Acinetobacter baumannii [7]): 0.25; pIC50 (Acinetobacter baumannii [8]): 5.72; pIC50 (Acinetobacter baumannii [9]): 5.40; pIC50 (Acinetobacter baumannii [10]): 4.32; IC50 at 24 h [11]: 73.6 µM; MIC (Acinetobacter baumannii [3]): 256 µg/mL (≈ 604 µM); pIC50 (Acinetobacter baumannii [12]): 5.23; pIC50 [13]: 5.17; MIC (Acinetobacter baumannii [1]): > 256 µg/mL; Activity (Acinetobacter baumannii [14]): 14.68; pIC50 (Acinetobacter baumannii [15]): 4.78; pIC50 (Staphylococcus aureus): 4.95; MIC (Acinetobacter baumannii [16]): 0.125 µg/mL; Activity (3T3-L1 [17]): 21.11%; Activity (Acinetobacter baumannii [18]): 72%; Activity (Acinetobacter baumannii [19]): Active; Activity (Acinetobacter baumannii [20]): Active; pIC50 (Pseudomonas aeruginosa): 5.00; pIC50 (Escherichia coli): 5.43; Activity (3T3-L1 [21]): 99.3%; Activity (3T3-L1 [22]): 80.61%; fractional inhibitory concentration index (FICI) (Acinetobacter baumannii [23]): 0.25; Activity (3T3-L1 [24]): 20.84%; Activity (Acinetobacter baumannii [2]): 70.2%; MIC (Acinetobacter baumannii [25]): 64 µg/mL; Activity (3T3-L1 [26]): 99.3%

Question: For `CCCCCCCCCCCCCCCC(=O)Nc1ncccn1`, which MIC (Acinetobacter baumannii [1]) is on record?
Answer: Its MIC is > 256 µg/mL.

Question: And the Activity (Acinetobacter baumannii [2])?
Answer: Its Activity is 22.5%.

Question: With `CC(C)(C)C(=O)Nc1ncccn1` as the molecule, how does the MIC (Acinetobacter baumannii [1]) read?
Answer: Its MIC is > 256 µg/mL.

Question: What about the Activity (Acinetobacter baumannii [2]) of the same molecule?
Answer: Its Activity is 12.3%.
